Data taken from publication PMC3066655 (Journal of medicinal chemistry, 2011).

Columns and labels:
σ2 receptor = target: T1, σ2 receptor (Rattus norvegicus, UniProt Q5U3Y7); assay: σ2 receptor binding assay, [3H]-DTG, liver membrane homogenates; conditions: for D3/ σ2 ratio: ratio of D3 and σ2 Ki values
T1 sequence (Q5U3Y7 1-176): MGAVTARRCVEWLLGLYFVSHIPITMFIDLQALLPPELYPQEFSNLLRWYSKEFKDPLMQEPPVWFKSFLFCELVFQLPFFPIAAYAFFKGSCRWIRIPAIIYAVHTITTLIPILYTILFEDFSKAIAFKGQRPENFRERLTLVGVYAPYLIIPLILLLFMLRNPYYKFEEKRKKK

σ1 receptor = σ1 receptor (Cavia porcellus, UniProt Q60492); assay: σ1 receptor binding assay; set-up: species or system guinea pig; conditions: ratio of D3 and σ1 Ki values
σ1 receptor, sequence (Q60492 whole entry): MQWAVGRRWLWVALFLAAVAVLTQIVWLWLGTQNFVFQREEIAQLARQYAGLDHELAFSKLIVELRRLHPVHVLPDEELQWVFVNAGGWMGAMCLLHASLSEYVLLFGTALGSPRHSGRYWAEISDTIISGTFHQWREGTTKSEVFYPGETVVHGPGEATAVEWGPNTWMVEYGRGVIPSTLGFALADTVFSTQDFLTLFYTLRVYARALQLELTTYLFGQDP

Row | Ki (σ2 receptor) [nM] | D3/ σ2 ratio (σ2 receptor) | D3/ σ1 Ratio (σ1 receptor) | Compound
1 | 2210 |  |  | COc1ccccc1N1CCN(CCCCNC(=O)c2ccc(CCF)cc2)CC1 [Compound 2, reference compound]
2 | 1320 | 1,200 | 7,076 | O=C(NC/C=C/CN1CCN(c2ccccc2OCCF)CC1)c1ccc(-c2ccsc2)cc1.O=C(O)C(=O)O [Compound 21e, 4-(Thiophen-3-yl)-N-(4-(4-(2-(2-fluoroethoxy)phenyl)piperazin-1-yl)-trans-but-2-enyl)benzamide]
3 | 1120 |  | 1,159 | COc1ccccc1N1CCN(CCCCNC(=O)c2ccc(OCCOCCOCCF)cc2)CC1.O=C(O)C(=O)O [Compound 18c, 4-(2-(2-(2-Fluoroethoxy)ethoxy)ethoxy)-N-(4-(4-(2-methoxyphenyl)piperazin-1-l)butyl)benzamide]
4 | 2020 | 1,839 | 6,541 | O=C(NC/C=C/CN1CCN(c2ccccc2OCCF)CC1)c1ccc(CCF)cc1.O=C(O)C(=O)O [Compound 21b, 4-(2-Fluoroethyl)-N-(4-(4-(2-(2-Fluoroethoxy)phenyl)piperazin-1-yl)-trans-butyl-2-enyl)benzamide]
5 | 1570 | 1,970 | 1,573 | COc1ccccc1N1CCN(CCCCNC(=O)c2ccc(N(C)C)cc2)CC1 [Compound 1, 4-(Dimethylamino)-N-[4-(4-(2-methoxyphenyl)piperazin-1-yl)butyl]benzamide, reference compound]
6 | 660 ± 36 |  |  | COc1ccccc1N1CCN(CCCCNC(=O)c2ccc(OCCF)cc2)CC1 [Compound 18a, 4-(2-Fluoroethoxy)-N-(4-(4-(2-methoxyphenyl)-piperazin-1-yl)-butyl)benzamide]
